This note sets out measurements from patent US20150359884A1, “MULTI-PHOTON ISOMERISATION OF COMBRETASTATINS AND THEIR USE IN THERAPY” (priority 2011, published 2015).

The nature of the data set: Picosecond time-resolved infrared (TRIR) spectroscopy of excited states. It counts as physicochemical. As for the experimental part:
The ultrafast time-resolved infrared (TRIR) experiments were performed on the ‘ULTRA’ laser system at the Science and Technology Facilities Council Rutherford Appleton Laboratory. The capabilities of the ULTRA instrument are described in detail elsewhere. Briefly, a chirped pulse amplified titanium:sapphire laser operating at 10 kHz repetition rate produced 40-80 fs duration pulses at a wavelength of 800 nm. The UV excitation pulse was generated from third harmonic generation of the 800 nm output of the amplifier with ˜50 fs duration at 266 nm, irradiating samples with a 1 μJ, 100 μm diameter beam. The mid-IR probe pulse was generated using ˜0.4 mJ of the 800 nm femtosecond output to pump an optical parametric amplifier, and difference frequency mixing of the signal and idler components. The mid-IR probe output pulses had ˜500 cm-1 bandwidth and ˜50 fs pulse duration. The UV pulses were polarized at a magic angle to the IR probe laser polarization. The timing between the pump and probe was performed using a PCcontrolled optical delay line. The sample in solution was placed between two 25 mm diameter CaF2 plates in a rasterscanned Harrick cell to limit irradiation of the sample by multiple pulses. The optical path of the sample between the two windows was controlled using a 100 μm PTFE spacer and the solution flowed using a peristaltic pump. The intensity of the transmitted mid-IR light was dispersed by a grating onto a pair of 128-element mercury-cadmium telluride array detectors (IR Associates), providing full (i.e. ˜500 cm-1) spectral coverage with every laser pulse. The overall instrument response time was ˜200 fs. A reference spectrum of the laser pulse (before the Harrick cell) was accumulated on a third, 64-element array detector and was used to remove the effects of laser fluctuations from the transient absorption data. Ground-state FTIR spectra were recorded using a Nicolet Avatar 360 spectrometer.
FIGS. 12 and 13 show the TRIR spectra of both isomers of CA4 following ultrafast electronic excitation using 266 nm, with the ground-state FTIR spectra shown beneath the time resolved data for comparison. To date there has been little characterization of combretastatins by infrared spectroscopy. However, the ground-state FTIR spectra have obvious similarities with stilbene and on this basis we assign the 1586/1581 and 1510/1509 cm-1 bands in E-CA4/Z-CA4 to the v8a ring stretches of the phenyl groups and v19a ring stretch with additional contributions from C—H in-plane bending. In the excited state spectra, there are negative absorption bands corresponding to bleaching of the ground-state absorptions and both the E- and Z-isomers are dominated by transient bands between 1350 and 1500 cm-1. At early times the transient bands show rapid shifting over about 10 cm-1 to higher wavenumbers associated with rapid ‘cooling’ of excess vibrational energy following electronic excitation as commonly observed in other molecular systems including DNA [26] and for the C═C stretching band of E-stilbene observed by time-resolved resonance Raman spectroscopy. It is also notable that for E-CA4 at pump-probe delays up to 20 ps, the intensities of the transient bands increase and this is most likely due to molecular rearrangements taking place lowering the overall symmetry of the molecule and increasing the cross-sections of these IR active modes. […]

Setting [1] is: dichloromethane, 266 nm excitation.

Turning to `COc1ccc(/C=C/c2cc(OC)c(OC)c(OC)c2)cc1O` [E-CA4, (E)-1-(3′,4′,5′-Trimethoxyphenyl)-2-(4″-methoxy-3″-hydroxy-phenyl)ethene], under setting [1], the “Excited state decay, longer lifetime (relaxed excited state)” value came out at 503±56 ps and the “Excited state decay, shorter lifetime (biexponential fit)” value is reported as 6.5±0.46 ps. The “Lifetime of the relaxed excited state measured by TRIR” value (methanol) amounted to 230±14 ps.
